This is an account of results in ChEMBL document CHEMBL1158000, “Geniculol, a new biologically active diterpene from the endophytic fungus geniculosporium sp.1” (1999).

In experiment [1] the test system is [Chlorella] fusca. Put plainly: Antialgal activity against Chlorella fusca at 50 ug by agar diffusion test. It is filed as functional. As to conditions: Scenedesmus fuscus; read-out: IZ.
Experiment [2] concerns [Chlorella] fusca. Put plainly: Reduction of photosynthetic activity in green alga Chlorella fusca assessed as production of oxygen per hour at 0.2 mg/mL. The arrangement: scale not given: the % may be the effect or the level left. It is filed as functional, Scenedesmus fuscus.

For `C[C@H]1C/C=C/[C@H]2[C@@H]3O[C@]3(C)[C@@H](C)[C@H]3[C@H](Cc4ccccc4)NC(=O)[C@]32OC(=O)/C=C/[C@@H](O)CCC1` [CYTOCHALASIN F], the zone of inhibition at 50 µg/disc in experiment [Chlorella] fusca [1] is 1 mm. The Activity in experiment [Chlorella] fusca [2] was 94.1%. For the molecule `C[C@]12CCC(=O)O[C@H]1C1=C[C@H]3OC(=O)[C@@]4(C)CCC[C@@](C)([C@@H]34)[C@]1(O)[C@H]2O` [GENICULOL], in experiment [Chlorella] fusca [1], the zone of inhibition at 50 µg/disc was found to be 2 mm.
